In US8883754B2, “Method for inhibiting angiogenesis” (Ewha University—Industry Collaboration Foundation, priority 2009, dated 2014):
Read-outs that look alike come from different tables or passages of the source.

What was measured:
[1] = system: intracellular ROS (H2O2) level in HAECs; assay: Detection and measurement of reactive oxygen species (CM-H2DCFDA, DCF fluorescence); format: cell-based, human; details: for level of ROS/H2O2 elevated by the Prx II knockdown: HAECs with Prx II knockdown
Procedure: HAECs were rinsed with Endothelial Basal Medium without phenol red (EBM, Lonza) and immediately incubated with 5 μM 5,6-chloromethyl-2′,7′-dichlorodihydrofluorescein diacetate (CM-H2DCFDA) (Molecular Probe) at 37° C. for 5 minutes. After briefly washing the cell with EBM, the fluorescence images were taken by fluorescence microscope (Axiovert 200 Basic standard, Zeiss, Germany). The relative DCF fluorescence was calculated by averaging the levels of fluorescence from 50-80 cells after subtracting the background fluorescence.

[2] = system: VEGF-VEGFR-2 signaling; details: for VEGFR-2 activation in response to VEGF in Prx II knockdown cells: HAECs with Prx II knockdown
Excerpt: Sequences of the four siRNA duplexes for human Prx II were 5′-[…]-3′ (#1, SEQ ID NO. 1), 5′-[…]-3′ (#2, SEQ ID NO. 2), 5′-[…]-3′ (#3, SEQ ID NO. 3) and 5′-[…]-3′ (#4, SEQ ID NO. 4). The Prx II siRNA duplex #1 was mainly used for the study. Sequences of the four siRNA duplexes for human Prx I were 5′-[…]-3′ (#1, SEQ ID NO. 5), 5′-[…]-3′ (#2, SEQ ID NO. 6), 5′-[…]-3′ (#3, SEQ ID NO. 7) and 5′-[…]-3′ (#4, SEQ ID NO. 8); those for human GPxl, 5′-[…]-3′ (#1, SEQ ID NO. 9), 5′-[…]-3′ (#2, SEQ ID NO. 10), 5′-[…]-3′ (#3, SEQ ID NO. 11) and 5′-[…]-3′ (#4, SEQ ID NO. 12). A Prx III-specific siRNA was previously described in Chang, T. S. et al., (J Biol Chem 2004 279 (40), 41975-41984). The firefly luciferase siRNA were purchased or synthesized from Dharmacon. SiRNA duplexes for human VEGFR-1 (Cat No. sc-29319), VEGFR-2 (Cat No. sc-29318), and Prx IV (Cat. No. sc-40835) was purchased from Santa Cruz Biotechnology. The sequence of siRNA specific to human NOX4 was 5′-[…]-3′ (SEQ ID NO. 13). Human caveolin-1 siRNA, 5′-[…]-3′ (SEQ ID NO. 14) was purchased from Qiagen. Unless otherwise stated, the endothelial cells (ECs) were transfected with the siRNA duplexes for 24 hrs using lipofectamine RNAi MAXTM (Invitrogen). Then, the cells were serum-starved for an additional 18 hrs in media containing 0.5% fetal bovine serum before VEGF stimulation.
(§1) For immunoblotting, cell lysates or the immunoprecipitates were mixed with 5× Laemmli sample buffer and boiled for 5 minutes. The samples were separated on a SDS denaturing gel and then electrophoretically transferred onto nitrocellulose membranes, which were subsequently subjected to immunoblotting. In order to block non-specific binding, the membrane was reacted with TBS (Tris-buffered saline; TBST) containing 0.5% Tween-20 and 5% nonfat milk at room temperature for 1 hour. The above described blots were reacted with each primary antibody in TBST containing 5% nonfat milk or BSA at 4° C. for overnight. After washing with TBST, the blots were reacted with horseradish peroxidase-conjugated goat anti-mouse immunoglobulin (IgG; 1:5000 dilution) or goat anti-rabbit IgG (1:3000 dilution) at room temperature for 45 minutes. Protein bands were detected using an Amersham ECLTM detection system (GE healthcare). When necessary, the membranes were stripped by shaking them for 60 minutes at 37° C. in 67 mM Tris (pH 6.7), 2% SDS, 100 mM 2-mercaptoethanol and reprobed. with the appropriate pan antibody.

[3] = system: HAECs; assay: VEGF-induced tube formation on Matrigel; format: cell-based, human; details: HAECs expressing mVEGFR-2 WT or C1206S; 1 μM pretreated for 1 hr before VEGF
Procedure: For tube formation, the HAECs (50,000 cells/well) were placed on 12-well culture dishes coated with growth factor-reduced Matrigel matrix (BD Bioscience, cat #354230). Cells were cultured for 18 hrs in the EBM-2 media containing 0.5% serum medium in the presence or absence of VEGF-A (25 ng/mL). Thereafter, the cell images were taken from five random visual fields per sample and the total length of the tubes were quantitatively analyzed using an Image-Pro Plus version 6.2 (Media Cybernetics).

[4] = biological target: T1, VEGFR-2 RTK (Homo sapiens, UniProt P35968); assay: VEGFR-2 in vitro kinase assay on immunoprecipitates; format: cell-based
T1 construct: The VEGFR-2 was immunoprecipitated from Prx II siRNA-transfected or H2O2 (100 μM)-pretreated HAECs; endogenous in cells; host or cells: HAECs (human aortic endothelial cells)
T1 sequence (P35968 20-1356): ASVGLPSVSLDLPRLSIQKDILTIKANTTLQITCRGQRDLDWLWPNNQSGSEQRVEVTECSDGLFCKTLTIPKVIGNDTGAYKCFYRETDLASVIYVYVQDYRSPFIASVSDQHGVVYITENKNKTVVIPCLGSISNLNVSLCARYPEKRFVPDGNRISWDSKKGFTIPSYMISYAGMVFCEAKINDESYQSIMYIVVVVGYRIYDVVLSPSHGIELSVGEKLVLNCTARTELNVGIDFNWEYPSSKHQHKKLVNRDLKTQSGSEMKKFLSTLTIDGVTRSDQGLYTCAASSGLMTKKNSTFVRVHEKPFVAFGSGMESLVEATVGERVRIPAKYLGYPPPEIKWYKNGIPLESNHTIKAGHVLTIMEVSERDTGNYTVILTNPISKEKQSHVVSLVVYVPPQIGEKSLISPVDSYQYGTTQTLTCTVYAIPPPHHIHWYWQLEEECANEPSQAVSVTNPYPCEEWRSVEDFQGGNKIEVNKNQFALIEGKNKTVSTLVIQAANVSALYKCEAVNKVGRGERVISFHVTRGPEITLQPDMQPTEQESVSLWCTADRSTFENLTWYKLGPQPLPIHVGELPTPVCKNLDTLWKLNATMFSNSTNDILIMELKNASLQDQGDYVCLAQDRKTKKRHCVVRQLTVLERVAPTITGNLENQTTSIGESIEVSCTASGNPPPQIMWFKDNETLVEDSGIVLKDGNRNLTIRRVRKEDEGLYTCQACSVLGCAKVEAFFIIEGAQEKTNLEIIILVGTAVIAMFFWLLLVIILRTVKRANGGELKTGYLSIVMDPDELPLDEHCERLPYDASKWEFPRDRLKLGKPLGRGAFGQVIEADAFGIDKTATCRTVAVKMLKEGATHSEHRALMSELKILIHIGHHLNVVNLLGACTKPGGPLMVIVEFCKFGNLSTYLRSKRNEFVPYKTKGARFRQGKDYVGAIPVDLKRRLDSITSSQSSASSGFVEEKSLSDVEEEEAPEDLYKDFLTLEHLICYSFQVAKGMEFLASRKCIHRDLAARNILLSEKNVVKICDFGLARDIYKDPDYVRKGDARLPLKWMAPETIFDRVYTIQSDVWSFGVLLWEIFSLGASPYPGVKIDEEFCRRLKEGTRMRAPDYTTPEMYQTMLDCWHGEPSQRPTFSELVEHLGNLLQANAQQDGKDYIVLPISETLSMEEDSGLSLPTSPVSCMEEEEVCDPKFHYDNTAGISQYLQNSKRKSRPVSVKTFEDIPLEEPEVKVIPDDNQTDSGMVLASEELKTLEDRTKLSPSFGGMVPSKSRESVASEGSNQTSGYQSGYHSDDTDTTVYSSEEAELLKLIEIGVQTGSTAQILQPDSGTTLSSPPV
Procedure: At the appropriate time, the culture media were aspirated and cells were lysed in extraction buffer (TEB) containing 20 mM Hepes (pH 7.0), 1% Triton X-100, 150 mM NaCl, 10% glycerol, 1 mM EDTA, 2 mM EGTA, 1 mM DTT, 5 mM Na3VO4, 5 mM NaF, 1 mM AEBSF, aprotinin (5 μg/mL), and leupeptin (5 μg/mL). After brief centrifugation, the protein content of samples was quantified using the Bradford reagent (Bio-Rad). For immunoprecipitation, the resulting supernatants (120 μg proteins) were pre-cleaned with 10 μL of protein-A/G Sepharose 4 Fast Flow beads (Amersham Biosciences) for 1 hr, incubated overnight with 2 μg of the indicated antibodies, and further incubated at 4° C. for 3 hrs with 20 μL of protein-A/G Sepharose beads. Immunocomplexes were washed three times with 1 mL of TEB and then subjected to either in vitro kinase assay or immunoblotting.
The in vitro kinase assay was done as previously described in Choi, M. H. et al., (Nature 2005 435 (7040), 347-353). Briefly, the immunocomplexes precipitated with rabbit anti-flk-1(sc-504) antibody were incubated with 30 μL of kinase buffer (20 mM HEPES pH 7.5, 20 mM MgCl2, 20 mM β-glycerophosphate, and 200 μM Na3VO4) containing […] of γ-^32[P]-ATP and 0.5 μg GST-PLCγ1 at 30° C. for 10 minutes. The reaction was stopped by the addition of a SDS sample buffer. The samples were then boiled and separated on SDS denaturing gel. […]

[5] = system: 2-cys Prxs; details: HAECs
Procedure: as §1

## VEGF
[1]; control HAECs
  increase of ROS on VEGF treatment: two-fold

## 5′-GUCAACAUCCAGCUGUACC-3′ [NOX4 siRNA]
[1]
  level of ROS/H2O2 elevated by the Prx II knockdown: background level
[2]
  VEGFR-2 activation in response to VEGF in Prx II knockdown cells: completely rescued

## Cc1cc(C)c(/C=C2\C(=O)Nc3ccccc32)[nH]1 [SU5416]
[3]
  tube formation by VEGFR-2 WT and C1206S mutant: completely blocked

## O[C@H](CS)[C@H](O)CS (racemic) [DTT, dithiothreitol]
[4]; VEGFR-2 immunoprecipitated from HAECs, incubated 10 minutes
  RTK activation abolished by Prx II knockdown or H2O2 treatment: fully restored

## methyl-β-cyclodextrin [MβCD]
[2]
  VEGFR-2 activation in response to VEGF in Prx II knockdown cells: restored VEGFR-2 activation

## 5′-GCAUCAACUUGCAGAAAGAUU-3′ [caveolin-1 siRNA]
[2]
  VEGFR-2 activation in response to VEGF in Prx II knockdown cells: no longer affected by the Prx II knockdown

## OO [H2O2, hydrogen peroxide]
[4]; HAECs pretreated at various concentrations
  VEGF-dependent induction of VEGFR-2 RTK activation after pretreatment: suppressed VEGF-dependent induction of VEGFR-2 RTK activation in a dose-dependent manner
[5]; micromolar concentrations up to 100 μM, 10 minutes
  hyperoxidation of 2-cys Prxs: did not induce hyperoxidation
[5]; millimolar concentration (1 mM)
  hyperoxidation of 2-cys Prxs: only slightly induced the hyperoxidation of Prx I and Prx III, but not Prx II

B1: catalase: polyethylene glycol (PEG)-conjugated catalase, an enzyme that reduces H2O2 to H2O (protein, UniProt P00432 2-527, looked up)
Catalase: ADNRDPASDQMKHWKEQRAAQKPDVLTTGGGNPVGDKLNSLTVGPRGPLLVQDVVFTDEMAHFDRERIPERVVHAKGAGAFGYFEVTHDITRYSKAKVFEHIGKRTPIAVRFSTVAGESGSADTVRDPRGFAVKFYTEDGNWDLVGNNTPIFFIRDALLFPSFIHSQKRNPQTHLKDPDMVWDFWSLRPESLHQVSFLFSDRGIPDGHRHMNGYGSHTFKLVNANGEAVYCKFHYKTDQGIKNLSVEDAARLAHEDPDYGLRDLFNAIATGNYPSWTLYIQVMTFSEAEIFPFNPFDLTKVWPHGDYPLIPVGKLVLNRNPVNYFAEVEQLAFDPSNMPPGIEPSPDKMLQGRLFAYPDTHRHRLGPNYLQIPVNCPYRARVANYQRDGPMCMMDNQGGAPNYYPNSFSAPEHQPSALEHRTHFSGDVQRFNSANDDNVTQVRTFYLKVLNEEQRKRLCENIAGHLKDAQLFIQKKAVKNFSDVHPEYGSRIQALLDKYNEEKPKNAVHTYVQHGSHLSAREKANL
modifications: PEG
notes: polyethylene glycol (PEG)-conjugated catalase, an enzyme that reduces H2O2 to H2O
[1]
  level of ROS/H2O2 elevated by the Prx II knockdown: background level
[2]; HAECs pretreated with PEG-catalase, increasing doses, 18 hours
  VEGF-dependent tyrosine phosphorylation: gradually decreased
